Measurements taken from ChEMBL document CHEMBL3352001, “2,4-Dialkyl-8,9,10,11-tetrahydrobenzo[g]pyrimido[4,5-c]isoquinoline-1,3,7,12(2H,4H)-tetraones as new leads against Mycobacterium tuberculosis” (Eur J Med Chem, 2014).
Converted amounts (≈) assume the structure as drawn.

Columns and labels:
[1] = Cytotoxicity against mouse J774A1 cells after 24 hrs by neutral red dye uptake assay; assay type: cell-based; conditions: J774.A1, 24 h, read-out: I50
[2] = system: Salmonella typhimurium; experiment: Genotoxicity in Salmonella typhimurium T104 Genox (recN2-4) expressing lux operon assessed as S/N ratio at 0.1 to 10 ug/mL measured for 4 hrs with 5 mins interval by vitotox assay in presence of S9 fraction; assay type: toxicity, organism-based; conditions: salmonella enterica subsp. enterica serovar typhimurium, s9, 4 h
[3] = Selectivity index, ratio of I50 for mouse J774A1 cells to GI50 for Mycobacterium tuberculosis H37Rv; assay type: toxicity, cell-based, J774.A1; conditions: read-out: Selectivity Index
[4] = system: Salmonella typhimurium; experiment: Genotoxicity in Salmonella typhimurium Cytox (pr1) expressing lux operon assessed as S/N ratio at 0.1 to 10 ug/mL measured for 4 hrs with 5 mins interval by vitotox assay; assay type: toxicity, organism-based; conditions: salmonella enterica subsp. enterica serovar typhimurium
[5] = system: Mycobacterium tuberculosis; experiment: Antimycobacterial activity against Mycobacterium tuberculosis H37Rv infected in mouse J774A1 cells assessed as reduction in bacillary replication at 6.25 ug/mL treatment stated after 24 hrs of infection for 4 days by luminometry; assay type: functional, J774.A1
[6] = system: Mycobacterium tuberculosis; experiment: Antimycobacterial activity against Mycobacterium tuberculosis H37Rv infected in mouse J774A1 cells assessed as reduction in bacillary replication at 12.5 ug/mL treatment stated after 24 hrs of infection for 4 days by luminometry; assay type: functional, J774.A1
[7] = system: Salmonella typhimurium; experiment: Genotoxicity in Salmonella typhimurium T104 Genox (recN2-4) expressing lux operon assessed as S/N ratio at 0.1 to 10 ug/mL measured for 4 hrs with 5 mins interval by vitotox assay; assay type: toxicity, organism-based; conditions: salmonella enterica subsp. enterica serovar typhimurium
[8] = Cytotoxicity against mouse J774A1 cells assessed as structural organization of DNA at 0.5 to 5 ug/mL after 24 hrs by Comet assay; assay type: cell-based; conditions: j774.a1, 24 h
[9] = system: Mycobacterium tuberculosis; experiment: Antimycobacterial activity against Mycobacterium tuberculosis H37Rv infected in mouse J774A1 cells assessed as reduction in bacillary replication at 3.13 ug/mL treatment stated after 24 hrs of infection for 4 days by luminometry; assay type: functional, J774.A1
[10] = system: Salmonella typhimurium; experiment: Genotoxicity in Salmonella typhimurium Cytox (pr1) expressing lux operon assessed as S/N ratio at 0.1 to 10 ug/mL measured for 4 hrs with 5 mins interval by vitotox assay in presence of S9 fraction; assay type: toxicity, organism-based; conditions: salmonella enterica subsp. enterica serovar typhimurium, s9, 4 h
[11] = system: Mycobacterium tuberculosis; experiment: Antimycobacterial activity against Mycobacterium tuberculosis H37Rv infected in mouse J774A1 cells assessed as reduction in bacterial load inside the cell at 3.13 ug/mL treatment stated after 24 hrs of infection for 4 days by luminometry; assay type: functional, J774.A1; parameters: scale not given: the % may be the effect or the level left
[12] = system: Mycobacterium tuberculosis; experiment: Antimycobacterial activity against Mycobacterium tuberculosis H37Rv infected in mouse J774A1 cells assessed as reduction in bacterial load inside the cell at 6.25 ug/mL treatment stated after 24 hrs of infection for 4 days by luminometry; assay type: functional, J774.A1; parameters: scale not given: the % may be the effect or the level left
[13] = system: Mycobacterium tuberculosis; experiment: Antimycobacterial activity against Mycobacterium tuberculosis H37Rv infected in mouse J774A1 cells assessed as reduction in extracellular bacterial load at 3.13 ug/mL treatment stated after 24 hrs of infection for 4 days by luminometry; assay type: functional, J774.A1

Compound | IC50 [1] | selectivity ratio [3] | other results
CCCCCCCn1c(=O)c2c3c(cnc2n(CCCCCCC)c1=O)C(=O)C1=C(C3=O)C2CCC1C2 (stereo not given) | 26.5 µg/mL (≈ 52.3 µM) | 42 | Ratio [2]: 0.8; Ratio [4]: < 1.5; inhibition (INH) [5]: 80.4%; inhibition (INH) [6]: 91.3%; Ratio [7]: 0.8; Activity [8]: Non-toxic; inhibition (INH) [9]: 65.5%; Ratio [10]: < 1.5
CC(C)Cn1c(=O)c2c3c(cnc2n(CC(C)C)c1=O)C(=O)C1=C(C3=O)C2CCC1CC2 | 20.4 µg/mL (≈ 46.9 µM) | 4.69 | 
Cn1c(=O)c2c3c(cnc2n(C)c1=O)C(=O)C1=C(C3=O)C2CCC1C2 (stereo not given) | 15.4 µg/mL (≈ 45.5 µM) | 9.72 | 
CC(C)n1c(=O)c2c3c(cnc2n(C(C)C)c1=O)C(=O)C1=C(C3=O)C2CCC1CC2 | 11.8 µg/mL (≈ 28.9 µM) | 16.1 | Ratio [2]: 0.8; Ratio [4]: < 1.5; inhibition (INH) [5]: 82.3%; Ratio [7]: 0.8; Activity [8]: Non-toxic; inhibition (INH) [9]: 58.7%; Ratio [10]: < 1.5
CCn1c(=O)c2c3c(cnc2n(CC)c1=O)C(=O)C1=C(C3=O)C2CCC1CC2 | 19.9 µg/mL (≈ 52.4 µM) | 7.79 | 
CC(C)CCn1c(=O)c2c3c(cnc2n(CCC(C)C)c1=O)C(=O)C1=C(C3=O)C2CCC1C2 (stereo not given) | 22.5 µg/mL (≈ 50 µM) | 9.32 | 
CC(C)Cn1c(=O)c2c3c(cnc2n(CC(C)C)c1=O)C(=O)C1=C(C3=O)C2CCC1C2 (stereo not given) | 16.8 µg/mL (≈ 39.8 µM) | 8.06 | 
CCCCCn1c(=O)c2c3c(cnc2n(CCCCC)c1=O)C(=O)C1=C(C3=O)C2CCC1CC2 | 16.4 µg/mL (≈ 35.3 µM) | 11 | 
CCCCCCn1c(=O)c2c3c(cnc2n(CCCCCC)c1=O)C(=O)C1=C(C3=O)C2CCC1CC2 | 13.7 µg/mL (≈ 27.9 µM) | 10.1 | 
CC(C)n1c(=O)c2c3c(cnc2n(C(C)C)c1=O)C(=O)C1=C(C3=O)C2CCC1C2 (stereo not given) | 9.71 µg/mL (≈ 24.7 µM) | 10.8 | Activity [11]: 57.72%; Ratio [2]: 0.8; Activity [12]: 98.03%; Ratio [4]: < 1.5; Ratio [7]: 0.8; Activity [8]: Non-toxic; inhibition (INH) [13]: 99%; Ratio [10]: < 1.5
CCCCCn1c(=O)c2c3c(cnc2n(CCCCC)c1=O)C(=O)C1=C(C3=O)C2CCC1C2 (stereo not given) | 13.4 µg/mL (≈ 29.7 µM) | 10.6 | 
CCCn1c(=O)c2c3c(cnc2n(CCC)c1=O)C(=O)C1=C(C3=O)C2CCC1C2 (stereo not given) | 18.7 µg/mL (≈ 47.5 µM) | 18.7 | 
Cn1c(=O)c2c3c(cnc2n(C)c1=O)C(=O)C1=C(C3=O)C2CCC1CC2 | 16.8 µg/mL (≈ 47.8 µM) | 5.94 | 
CCCn1c(=O)c2c3c(cnc2n(CCC)c1=O)C(=O)C1=C(C3=O)C2CCC1CC2 | 22 µg/mL (≈ 54 µM) | 8.5 | 
CCCCn1c(=O)c2c3c(cnc2n(CCCC)c1=O)C(=O)C1=C(C3=O)C2CCC1CC2 | 9.87 µg/mL (≈ 22.7 µM) | 5.36 | 
CCCCn1c(=O)c2c3c(cnc2n(CCCC)c1=O)C(=O)C1=C(C3=O)C2CCC1C2 (stereo not given) | 9.5 µg/mL (≈ 22.5 µM) | 6.51 | 
CCCCCCCn1c(=O)c2c3c(cnc2n(CCCCCCC)c1=O)C(=O)C1=C(C3=O)C2CCC1CC2 | 32.8 µg/mL (≈ 63.1 µM) | 24.8 | Ratio [2]: 0.8; Ratio [4]: < 1.5; inhibition (INH) [5]: 68.8%; inhibition (INH) [6]: 92%; Ratio [7]: 0.8; Activity [8]: Non-toxic; Ratio [10]: < 1.5
CCn1c(=O)c2c3c(cnc2n(CC)c1=O)C(=O)C1=C(C3=O)C2CCC1C2 (stereo not given) | 18.2 µg/mL (≈ 49.9 µM) | 10.8 | 
CC(C)CCn1c(=O)c2c3c(cnc2n(CCC(C)C)c1=O)C(=O)C1=C(C3=O)C2CCC1CC2 | 23.4 µg/mL (≈ 50.4 µM) | 4.77 | 
CCCCCCn1c(=O)c2c3c(cnc2n(CCCCCC)c1=O)C(=O)C1=C(C3=O)C2CCC1C2 (stereo not given) | 12.1 µg/mL (≈ 25.3 µM) | 9.9 | 
